# System: Endogenous Huntingtin Protein
# Assay: Endogenous Huntingtin Protein Assay (ELISA-based MSD electrochemiluminescence)
# Format: cell-based
# Settings: Table 2; MSD plates coated with MW1 (expanded polyglutamine) or MAB2166 capture antibody; "inactive" = result above the detection limit of the assay
# In short: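 MSD electrochemiluminescence sandwich ELISA: capture with MW1 (expanded polyQ) or MAB2166 at 1 µg/mL, samples incubated overnight at 4 °C. Detection by rabbit mAb #56565 then SULFO-TAG anti-rabbit antibody, each 0.25 µg/mL for 1 h at room temperature, read in buffer T on SI 6000 imager.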
row,SMILES,IC50 [µM]
1,"CC(C)[C@H]1CN(c2ncc(-c3ccc(-c4ncns4)cc3O)nn2)C[C@@H](C)N1 (single isomer, unassigned) [Cpd 268, 2-{3-[(3R,5S)-3-methyl-5-(propan-2-yl)piperazin-1-yl]-1,2,4-triazin-6-yl}-5-(1,2,4-thiadiazol-5-yl)phenol or 2-{3-[(3S,5R)-3-methyl-5-(propan-2-yl)piperazin-1-yl]-1,2,4-triazin-6-yl}-5-(1,2,4-thiadiazol-5-yl)phenol]",0.124
2,"CC(C)N1CCN(c2ncc(-c3ccc(-c4cn[nH]c4)cc3O)nn2)CC1 [Cpd 60, 2-{3-[4-(propan-2-yl)piperazin-1-yl]-1,2,4-triazin-6-yl}-5-(1H-pyrazol-4-yl)phenol]",1.01
3,"Cc1cn2nc(-c3ccc(-c4cnc(N5CCN[C@H](C)C5)nn4)c(O)c3)cc(C)c2n1 [Cpd 98, 5-(2,8-dimethylimidazo[1,2-b]pyridazin-6-yl)-2-{3-[(3R)-3-methylpiperazin-1-yl]-1,2,4-triazin-6-yl]phenol]",0.0102
4,"Cc1cc(-c2cn[nH]c2)cc(O)c1-c1cnc(N2CCN[C@@H](C(C)C)C2)nn1 [Cpd 127, 3-methyl-2-{3-[(3S)-3-(propan-2-yl)piperazin-1-yl]-1,2,4-triazin-6-yl}-5-(1H-pyrazol-4-yl)phenol]",0.672
5,"CC(C)[C@H]1CN(c2ncc(-c3ccc(-c4cnc5nsnc5c4)cc3O)nn2)CCN1 [Cpd 264, 2-{3-[(3S)-3-(propan-2-yl)piperazin-1-yl]-1,2,4-triazin-6-yl}-5-([1,2,5]thiadiazolo[3,4-b]pyridin-6-yl)phenol]",0.125
6,"CC(C)(C)[C@H]1CN(c2ncc(-c3ccc(-n4nccn4)cc3O)nn2)CCN1 [Cpd 18, 2-{3-[(3S)-3-tert-butylpiperazin-1-yl]-1,2,4-triazin-6-yl}-5-(2H-1,2,3-triazol-2-yl)phenol]",0.0151
7,"CC1([C@H]2CN(c3ncc(-c4ccc(-c5cnn6c5CCC6)cc4O)nn3)CCN2)CC1 [Cpd 280, 5-(5,6-dihydro-4H-pyrrolo[1,2-b]pyrazol-3-yl)-2-{3-[(3S)-3-(1-methylcyclopropyl)piperazin-1-yl]-1,2,4-triazin-6-yl}phenol]",0.0045
8,"CC(C)[C@H]1CN(c2ncc(-c3ccc(-c4ccc5nccn5n4)cc3O)nn2)CCN1 [Cpd 102, 5-(imidazo[1,2-b]pyridazin-6-yl)-2-{3-[(3S)-3-(propan-2-yl)piperazin-1-yl]-1,2,4-triazin-6-yl}phenol]",0.0134
9,"Cc1cnsc1-c1ccc(-c2cnc(N3CCN[C@@H](C(C)C)C3)nn2)c(O)c1 [Cpd 253, 5-(4-methyl-1,2-thiazol-5-yl)-2-{3-[(3S)-3-(propan-2-yl)piperazin-1-yl]-1,2,4-triazin-6-yl}phenol]",0.376
10,"CCN1CCN(c2ncc(-c3ccc(-c4cc(F)c5nc(C)cn5c4)cc3O)nn2)CC1 [Cpd 77, 2-[3-(4-ethylpiperazin-1-yl)-1,2,4-triazin-6-yl]-5-(8-fluoro-2-methylimidazo[1,2-a]pyridin-6-yl)phenol]",0.0049
11,"[2H]C([2H])([2H])n1cc(-c2ccc(-c3cnc(N4C[C@@H](C)N(C)[C@@H](C)C4)nn3)c(O)c2)cn1 [Cpd 51, 5-[1-(^2H3)methyl-1H-pyrazol-4-yl]-2-{3-[(3R,5S)-3,4,5-trimethylpiperazin-1-yl]-1,2,4-triazin-6-yl}phenol]",0.33
12,"Oc1cc(-c2cn[nH]c2)ccc1-c1cnc(N2CCNC(C3CC3)C2)nn1 (stereo not shown) [Cpd 5, 2-[3-(3-cyclopropylpiperazin-1-yl)-1,2,4-triazin-6-yl]-5-(1H-pyrazol-4-yl)phenol]",0.006
13,"CCc1cc(-c2ccc(-c3cnc(N4CCN[C@@H](C(C)C)C4)nn3)c(O)c2)ncn1 [Cpd 150, 5-(6-ethylpyrimidin-4-yl)-2-{3-[(3S)-3-(propan-2-yl)piperazin-1-yl]-1,2,4-triazin-6-yl}phenol]",0.139
14,"C[C@H]1CN(c2ncc(-c3ccc(-c4cn[nH]c4)cc3O)nn2)[C@@H](C)CN1 [Cpd 176, 2-{3-[(2S,5S)-2,5-dimethylpiperazin-1-yl]-1,2,4-triazin-6-yl}-5-(1H-pyrazol-4-yl)phenol]",0.619
15,"CC[C@H]1CN(c2ncc(-c3ccc(-c4cn[nH]c4)cc3O)nn2)CCN1 [Cpd 23, 2-{3-[(3S)-3-ethylpiperazin-1-yl]-1,2,4-triazin-6-yl}-5-(1H-pyrazol-4-yl)phenol]",0.0227
16,"Cn1nc2cc(-c3cnc(-c4cnc(N5CCN[C@@H](C6CC6)C5)nn4)c(O)c3)cnc2n1 [Cpd 180, 2-{3-[(3S)-3-cyclopropylpiperazin-1-yl]-1,2,4-triazin-6-yl}-5-(2-methyl-2H-[1,2,3]triazolo[4,5-b]pyridin-6-yl)pyridin-3-ol]",0.0276
17,"Oc1cc(-c2cnn3c2CCCC3)ccc1-c1cnc(N2CCNC(C3CC3)C2)nn1 (single isomer, unassigned) [Cpd 277, 2-{3-[(3S)-3-cyclopropylpiperazin-1-yl]-1,2,4-triazin-6-yl}-5-(4,5,6,7-tetrahydropyrazolo[1,5-a]pyridin-3-yl)phenol or 2-{3-[(3R)-3-cyclopropylpiperazin-1-yl]-1,2,4-triazin-6-yl}-5-(4,5,6,7-tetrahydropyrazolo[1,5-a]pyridin-3-yl)phenol]",0.0248
18,"CC(C)(C)[C@H]1CN(c2ncc(-c3ccc(-c4c[nH]nc4F)cc3O)nn2)CCN1 [Cpd 125, 2-{3-[(3S)-3-tert-butylpiperazin-1-yl]-1,2,4-triazin-6-yl}-5-(3-fluoro-1H-pyrazol-4-yl)phenol]",0.0073
19,"Cn1nnc2ncc(-c3ccc(-c4cnc(N5CCN[C@@H](C6CC6)C5)nn4)c(O)c3)cc21 [Cpd 169, 2-{3-[(3S)-3-cyclopropylpiperazin-1-yl]-1,2,4-triazin-6-yl}-5-(1-methyl-1H-[1,2,3]triazolo[4,5-b]pyridin-6-yl)phenol]",0.355
20,"Oc1cc(-c2cn[nH]c2)ccc1-c1cnc(N2CCNC3(CCC3)C2)nn1 [Cpd 50, 2-[3-(5,8-diazaspiro[3.5]nonan-8-yl)-1,2,4-triazin-6-yl]-5-(1H-pyrazol-4-yl)phenol]",0.312
21,"Cc1cn2cc(-c3ccc(-c4cnc(N5CCN[C@@H](C(C)C)C5)nn4)c(O)c3)nc(C)c2n1 [Cpd 96, 5-(2,8-dimethylimidazo[1,2-a]pyrazin-6-yl)-2-{3-[(3S)-3-(propan-2-yl)piperazin-1-yl]-1,2,4-triazin-6-yl]phenol]",0.0086
22,"CC(C)C1CN(c2ncc(-c3ccc(-c4c[nH]nc4F)cc3O)nn2)CCN1 (stereo not shown) [Cpd 15, 5-(3-fluoro-1H-pyrazol-4-yl)-2-{3-[3-(propan-2-yl)piperazin-1-yl]-1,2,4-triazin-6-yl]phenol]",0.0128
23,"CC(C)[C@H]1CN(c2ncc(-c3c(O)cc(-c4cn[nH]c4F)cc3F)nn2)CCN1 [Cpd 283, 3-fluoro-5-(5-fluoro-1H-pyrazol-4-yl)-2-{3-[(3S)-3-(propan-2-yl)piperazin-1-yl]-1,2,4-triazin-6-yl}phenol]",0.0073
24,"CC(C)(C)[C@H]1CN(c2ncc(-c3cc(F)c(-c4cn[nH]c4)cc3O)nn2)CCN1 [Cpd 164, 2-{3-[(3S)-3-tert-butylpiperazin-1-yl]-1,2,4-triazin-6-yl}-4-fluoro-5-(1H-pyrazol-4-yl)phenol]",0.004
25,"Oc1cc(-c2ccsn2)ccc1-c1cnc(N2CCN[C@@H](C3CC3)C2)nn1 [Cpd 252, 2-{3-[(3S)-3-cyclopropylpiperazin-1-yl]-1,2,4-triazin-6-yl}-5-(1,2-thiazol-3-yl)phenol]",0.0165
